Measurements reported in US20200268019A1, “USE OF ZINC AND COPPER GLUCONATE IN THE TREATMENT OF METHICILLIN-RESISTANT STAPHYLOCOCCUS AUREUS” (Distributors Processing, Inc., priority 2015, published 2020).

Legend:
[1] = Test of efficacy and safety: zinc source in dry feed of domesticated pigs, daily weight gain; conditions: for Average daily weight gain: 83 days
Description: In a confirmation experiment the safety of using powdered zinc gluconate as a conventional dietary supplement in the dietary mineral supply of domesticated pigs was examined in a controlled study.
3 groups of pigs, each comprising 11 individuals were identically fed save for the source of zinc as according to Table 1. Group 1, which was the control group, was fed […] 75% zinc oxide per ton dry feed according to normal feeding recommendations. Group 2 was fed zinc gluconate as a powder. Group 3 was fed zinc gluconate and further including 100 g Micro Aid® per ton feed. The amount of zinc fed to the animals of the three study groups was identical and corresponding to 23 g zinc per ton dry feed. Micro Aid® is dietary supplement known to enhance growth and reduce ammonia excretions in domesticated pigs. It is a registered trade mark of DPI Global, 17656 Avenue 168, Porterville, Calif. 93257. Micro Aid® has a recognized effect on the growth increase of pigs on the order of 4% per 100 g added Micro Aid® per ton feed.
The daily gain of weight for each individual was registered during the trial period and the trial was terminated after 83 days. For comparison the expected weight gain of adding Micro Aid® to a feed mixture comprising one of the two zinc sources has been calculated.

Salmonella = assay: Study 1: test for antigens against Salmonella in the blood of pigs; format: in vivo; conditions: for Relative risk: Salmonella, relative to control; for Pct. positives / Positives: Salmonella-positive blood samples; for Positives: of 126 (control) / 108 (study) samples
Experimental: A subset of the pigs in both study groups were tested for Salmonella prior to shipping out of the test and to the meat processing facility by testing for antigens against Salmonella in the blood. An inclusion rate of 60% was desired for both groups but was not reached for the study group.

[2] = administered as pills; cited from earlier work
[3] = Study 1: randomized trial of 0.05% zinc gluconate in pellet feed, productivity and health of pigs; conditions: for combined disease and mortality withdrawal rate / pigs treated for diarrhea during the study period: 204 pigs per group, 12 weeks
Experimental: In a randomized trial the effect of the addition of 0.05% zinc gluconate to a standard pellet feed was tested for efficacy against Salmonella, health condition of the digestive system including stomach and intestines, and productivity in pigs, and compared to an otherwise identical diet without zinc gluconate. The control group received zinc in the form of zinc oxide to the same amount as the study group.
408 pigs from a single farm were randomly partitioned into two groups of 204 pigs each and fed with either a pelleted control feed or an otherwise identical pelleted feed comprising 0.05% zinc gluconate. In order maintain comparability of control group to study group and to diminish the influence of lung disease on the mortality of the control group, both groups were twice vaccinated with Porcilis against severe lung disease.
All pigs were followed for 12 weeks starting with their inclusion into the trial and ending with their transport to a meat processing plant. For all pigs in the study data on the feed uptake, growth, eventual diseases suffered during the study period were collected as well as including the complete slaughter records of the meat processing plant into the study. Pigs were included into the trial upon reaching an entry weight of on the average 33 kg. The pigs were weighed at inclusion into the trial, after 6 weeks, and after 12 weeks. […] The pigs in the study were allowed to eat and drink freely and the access to water and dietary was unrestricted.

[4] = Study 3: birth weight of piglets and milk production of sows; format: in vivo
Experimental: (§1) A controlled comparison study between two groups of pigs at two farms in the province of Nordjylland, Denmark, was performed, each farm having about 600 sows in production and each farm feeding the sows in the production zinc according to veterinarian recommendations of 75 ppm zinc per FU. At farm 1, the sows received zinc in the form of zinc oxide whereas at farm 2, the sows received zinc in the form of zinc gluconate.

[5] = Study 2: comparison of two farms, open wounds and footpad lesions in sows; format: in vivo
Experimental: as §1

[6] = pigs, 11 per group, 23 g zinc per ton dry feed
[7] = pigs having weights between 33-65 kg
[8] = pigs weighing between 65-105 kg

Compound | Average daily weight gain [1, 6] | Relative risk (Salmonella) | Pct. positives (Salmonella) | Positives (Salmonella) | added zinc taken up by the digestive system [2] | combined disease and mortality withdrawal rate [3] | pigs treated for diarrhea during the study period [3] | feeding units (FU) to achieve 1 kg of growth ([3]; average, whole trial 33-105 kg) | feeding units (FU) to achieve 1 kg of growth [3, 7] | feeding units (FU) to achieve 1 kg of growth [3, 8] | Average daily weight gain ([1]; Group 3: zinc gluconate further including 100 g Micro Aid per ton feed) | signs of malnourishment or increased infection levels ([1]; regular inspection by a veterinarian) | milk production of the sows ([4]; farm 2 compared to farm 1 (zinc oxide)) | weight of piglets at birth ([4]; sows of farm 2) | sows suffering from lesions on their footpads ([5]; sows of farm 2, 75 ppm zinc per FU) | number of open wounds ([5]; sows, 75 ppm zinc per FU, within a month of the dietary change)
[O]=[Zn] [zinc oxide, reference compound] | 822 g/daily | 1 | 30.2% | 38 | 20% | 1.7% | about 15% | 2,85 FU/kg | 2,53 FU/kg | 3.13 FU/kg | – | – | – | – | – | –
zinc gluconate | 875 g/daily | 0.56 | 22.2% | 24 | – | 1.7% | about 15% | 2.78 FU/kg | 2,51 FU/kg | 3.00 FU/kg | 910 g/daily | no signs of these conditions were observed | increased compared to the sows of farm 1 | above average weight at birth | disappeared almost completely | rapid decrease in the number of open wounds
